{"source": "patent US20060263344A1", "about": "“Novel probiotic compositions and methods of using the same” (priority 2003, published 2006)", "key": {"[1]": {"tested_on": "lower density lipoproteins (LDL+VLDL)", "assay": "Inhibition of cupric ion-induced oxidation of lower density lipoproteins (antioxidant activity)", "format": "biochemical, humans", "settings": "inhibition of lipid peroxide formation in LDL+VLDL, 25 μM cupric ion, 37° C., 6 hours; matrix sample based on CoQ10 conc.", "experimental": "A weighed portion (50-500 mg) of solid sample of CoQ10 contained in a glycoprotein matrix was mixed with 5 ml of 50% methanol/water and heated at 90° C. in a plastic screw-capped tube with intermittent shaking for 2 hours to determine the unconjugated (“free”) phenols present. Another weighed portion of the same sample was heated with 5 ml of 1.2 M HCl in 50% aqueous methanol for 2 hours at 90° C. to measure the unconjugated plus conjugated (“total”) phenols. The extracts, each done in duplicate, were then filtered with a 0.45 μm filter and stored at −20° C. until assay. Values for free polyphenols and total phenols for commercial CoQ10 are known.\nThe phenol content in the extracts was measured by the Folin-Cocialteu reagent (Sigma Chemical Co., St. Louis, Mo.) using catechin (Sigma) as a standard. A blank, catechin standards and samples were added to the Folin reagent in a cuvette and after 20 minutes the color was measured at 720 nm vs. a blank. […]\nThe amount of lipid peroxides was measured using thiobarbituric acid and fluorometry. The % of inhibition of lipid peroxide formation was calculated vs. a control with no added antioxidants. The IC50 value in μM units was then calculated.\nThe amount of CoQ10 in the composition of the invention was determined by HPLC using UV detector, C18 column (Perkin Elmer Pecosil 5, 15 cm) and a solvent of 75% methanol and 25% isopropanol. […]"}, "[2]": {"assay": "Stability of CoQ10 in a 50° C. oven open to the air (HPLC)", "format": "physicochemical", "settings": "for Loss of CoQ10 after 36 days at 50° C. (equivalent to 3 months at room temperature) / Loss of CoQ10 after 72 days at 50° C. (equivalent to 6 months at room temperature): open to the air", "experimental": "100 mg of USP CoQ10 (Sigma) and CoQ10 contained in a glycoprotein matrix from Example 1 was placed in a 10 ml beaker in a 50° C. oven open to the air. The amount of CoQ10 remaining was analyzed by HPLC using a C18 column (Perkin Elmer Pecosil 5, 15 cm) and a solvent of 75% methanol and 25% isopropanol."}}}
{"smiles": "COC1=C(OC)C(=O)C(C/C=C(\\C)CC/C=C(\\C)CC/C=C(\\C)CC/C=C(\\C)CC/C=C(\\C)CC/C=C(\\C)CC/C=C(\\C)CC/C=C(\\C)CC/C=C(\\C)CCC=C(C)C)=C(C)C1=O", "note": "[CoQ10 (USP), Coenzyme Q10]", "values": [{"measurement": "IC50", "setting": "[1]", "value": 1330, "unit": "nM"}, {"measurement": "Loss of CoQ10 at 0 days", "setting": "[2]; 0 days", "value": 0, "unit": "%"}, {"measurement": "Loss of CoQ10 after 36 days at 50° C. (equivalent to 3 months at room temperature)", "setting": "[2]; listed as USP CoQ10", "value": 6.8, "unit": "%"}, {"measurement": "Loss of CoQ10 after 36 days at 50° C. (equivalent to 3 months at room temperature)", "setting": "[2]; listed as commercial CoQ10", "value": 6.8, "unit": "%"}, {"measurement": "Loss of CoQ10 after 72 days at 50° C. (equivalent to 6 months at room temperature)", "setting": "[2]; listed as USP CoQ10", "value": 16.8, "unit": "%"}, {"measurement": "Loss of CoQ10 after 72 days at 50° C. (equivalent to 6 months at room temperature)", "setting": "[2]; listed as commercial sample", "value": 16.8, "unit": "%"}]}
